Consider three molecules from patent US20230025600A1, “TREATMENT OF CANCERS WITH ANTIBODY DRUG CONJUGATES (ADC) THAT BIND TO 191P4D12 PROTEINS” (AGENSYS, INC., priority 2019, published 2023).

One series concerns the target T1, CYP3A4 (Homo sapiens, UniProt P08684).
T1 construct: from tissue; host or cells: human subjects in vivo (endogenous enzyme)
Put plainly: Metabolism in vitro. It is filed as in vitro ADME. From the text: Enfortumab vedotin-ejfv catabolism has not been studied in humans; however, it is expected to undergo catabolism to small peptides, amino acids, unconjugated MMAE, and unconjugated MMAE-related catabolites.

Series [1] in a line: Population pharmacokinetic analysis in patients. It is filed as in vivo, human. An excerpt:
Population pharmacokinetic analysis included data from 369 patients based on three Phase 1 studies and one Phase 2 study. Enfortumab vedotin-ejfv pharmacokinetics were characterized after single and multiple doses in patients with locally advanced or metastatic urothelial carcinoma and other solid tumors.
Steady-state concentrations of ADC and MMAE were reached after 1 treatment cycle.

The subject of a further series is L5178Y mouse lymphoma. Put plainly: L5178Y mouse lymphoma forward mutation assay. The format is cell-based. An excerpt:
(§1) MMAE was genotoxic in the rat bone marrow micronucleus study through an aneugenic mechanism. This effect is consistent with the pharmacological effect of MMAE as a microtubule-disrupting agent. MMAE was not mutagenic in the bacterial reverse mutation assay (Ames test) or the L5178Y mouse lymphoma forward mutation assay.

In series [2] the test system is bacterial reverse mutation. Put plainly: Bacterial reverse mutation assay (Ames test). It is filed as cell-based.
Source text: as §1
Background: The Ames test detects mutagens through reverse mutation in bacteria.

In the next series the test system is rat bone marrow. Put plainly: Rat bone marrow micronucleus study. It is filed as in vivo. The conditions noted are these: aneugenic mechanism.
Source text: as §1

The target of another series is P-glycoprotein (P-gp) (Homo sapiens, UniProt P08183). Put plainly: Transporter systems in vitro. The format is in vitro ADME.
The test system of series [3] is acute myeloid leukemia (AML) at relapse. Conditions: administered alone; cited from earlier work.
Series [4] has as its system human lung cancer xenograft AG-L4. Nature of the series: Efficacy in subcutaneous established human lung cancer xenograft AG-L4 in SCID mice. It is filed as in vivo. The conditions noted are these: 10 mg/kg every seven days for two doses, intravenous bolus; tumors about 200 mm^3 at start; compared to control ADC. The protocol:
In another experiment, patient-derived lung cancer xenograft AG-L4 was maintained by serial passages in SCID mice. Stock tumors were harvested sterilely and minced into 1 mm^3 pieces. Six (6) pieces were implanted into the flank of individual SCID mice. Tumors were allowed to grow untreated until they reached an approximate volume of 200 mm^3. The Ha22-2(2,4)6.1vcMMAE and the control ADC were dosed at 10 mg/kg every seven (7) days for two doses by intravenous bolus injection. The amount of ADC administered was based on the individual body weight of each animal obtained immediately prior to dosing. Tumor growth was monitored using caliper measurements every 3 to 4 days. Tumor volume was calculated as Width^2×Length/2, where width is the smallest dimension and length is the largest dimension.

Series [5] deals with human breast cancer xenograft BT-483. Nature of the series: Efficacy in subcutaneous established human breast cancer xenograft BT-483 in SCID mice. It is filed as in vivo. Conditions: 5 mg/kg every four days for four doses, intravenous bolus; tumors about 100 mm^3 at start; compared to control ADC. The method, then:
In this experiment, human breast cancer BT-483 cells were used to generate stock xenografts, which were maintained by serial passages in SCID mice. Stock tumors were harvested sterilely and minced into 1 mm^3 pieces. Six (6) pieces were implanted into the flank of individual SCID mice. Tumors were allowed to grow untreated until they reached an approximate volume of 100 mm^3. The Ha22-2(2,4)6.1vcMMAE and the control ADC were dosed at 5 mg/kg every four (4) days for four (4) doses by intravenous bolus injection. The amount of ADC administered was based on the individual body weight of each animal obtained immediately prior to dosing. Tumor growth was monitored using caliper measurements every 3 to 4 days. Tumor volume was calculated as Width^2×Length/2, where width is the smallest dimension and length is the largest dimension.
Background: A xenograft is tissue or cells of one species grown in another, often human tumour cells in immunodeficient mice.

The mark [6] stands for this setting: unconjugated MMAE, after first treatment cycle of 1.25 mg/kg, Days 1, 8 and 15.

Square brackets hold non-standard residues; d marks the D form. Peptide text beside a SMILES is read from it. * marks the point of attachment. Dolaproine = CO[C@@H]([C@@H]1CCCN1)[C@@H](C)C(=O)O; Dil = CC[C@H](C)[C@H](NC)[C@@H](CC(=O)O)OC; X1 = C[C@@H](N*)[C@@H](O)c1ccccc1; NMeV = CN[C@H](C(=O)O)C(C)C

P-glycoprotein (P-gp), sequence (P08183 whole entry): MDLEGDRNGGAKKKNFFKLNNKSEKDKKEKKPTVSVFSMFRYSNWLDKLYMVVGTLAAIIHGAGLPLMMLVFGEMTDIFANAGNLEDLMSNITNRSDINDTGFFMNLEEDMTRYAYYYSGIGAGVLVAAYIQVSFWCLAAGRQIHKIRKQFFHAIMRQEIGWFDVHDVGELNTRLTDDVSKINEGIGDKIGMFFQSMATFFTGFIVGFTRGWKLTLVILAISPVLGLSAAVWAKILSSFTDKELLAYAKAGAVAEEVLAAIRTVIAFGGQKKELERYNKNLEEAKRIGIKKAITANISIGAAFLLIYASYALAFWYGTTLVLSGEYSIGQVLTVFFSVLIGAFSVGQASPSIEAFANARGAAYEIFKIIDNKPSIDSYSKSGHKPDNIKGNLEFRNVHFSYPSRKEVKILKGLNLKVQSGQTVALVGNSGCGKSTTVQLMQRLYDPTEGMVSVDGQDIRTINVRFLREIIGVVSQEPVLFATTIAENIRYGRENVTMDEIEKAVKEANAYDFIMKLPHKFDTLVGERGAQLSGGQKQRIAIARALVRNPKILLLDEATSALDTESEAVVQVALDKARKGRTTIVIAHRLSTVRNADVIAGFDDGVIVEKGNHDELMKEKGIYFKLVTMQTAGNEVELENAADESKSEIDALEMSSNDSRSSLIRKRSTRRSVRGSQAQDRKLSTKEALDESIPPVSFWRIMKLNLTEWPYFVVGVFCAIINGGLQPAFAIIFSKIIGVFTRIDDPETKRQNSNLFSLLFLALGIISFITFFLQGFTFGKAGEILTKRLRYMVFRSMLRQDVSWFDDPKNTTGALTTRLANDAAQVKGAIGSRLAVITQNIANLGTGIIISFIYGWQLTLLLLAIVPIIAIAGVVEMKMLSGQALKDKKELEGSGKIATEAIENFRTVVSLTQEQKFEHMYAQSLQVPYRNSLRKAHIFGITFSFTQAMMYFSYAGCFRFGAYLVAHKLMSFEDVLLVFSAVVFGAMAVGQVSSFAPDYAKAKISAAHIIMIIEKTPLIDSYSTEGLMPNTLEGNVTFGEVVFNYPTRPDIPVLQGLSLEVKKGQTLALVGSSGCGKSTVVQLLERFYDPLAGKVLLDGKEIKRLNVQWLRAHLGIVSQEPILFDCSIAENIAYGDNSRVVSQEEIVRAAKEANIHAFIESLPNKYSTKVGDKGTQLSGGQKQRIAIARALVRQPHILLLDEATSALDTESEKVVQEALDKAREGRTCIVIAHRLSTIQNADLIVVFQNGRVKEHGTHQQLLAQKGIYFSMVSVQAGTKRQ
T1 sequence (P08684 whole entry): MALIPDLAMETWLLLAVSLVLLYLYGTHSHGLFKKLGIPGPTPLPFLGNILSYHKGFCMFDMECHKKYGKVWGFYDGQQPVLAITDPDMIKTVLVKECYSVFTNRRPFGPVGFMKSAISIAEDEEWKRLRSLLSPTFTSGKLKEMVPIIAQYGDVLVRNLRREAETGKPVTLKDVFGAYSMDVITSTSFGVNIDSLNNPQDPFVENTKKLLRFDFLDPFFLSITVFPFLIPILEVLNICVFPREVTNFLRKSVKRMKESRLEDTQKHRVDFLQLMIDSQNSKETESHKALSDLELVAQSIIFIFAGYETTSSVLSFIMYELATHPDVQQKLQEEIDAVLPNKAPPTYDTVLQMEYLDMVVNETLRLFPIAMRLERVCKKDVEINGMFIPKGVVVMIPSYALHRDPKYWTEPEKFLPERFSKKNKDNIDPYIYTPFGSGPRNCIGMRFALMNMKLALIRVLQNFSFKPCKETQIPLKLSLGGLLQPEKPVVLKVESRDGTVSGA

With `CC[C@H](C)[C@@H]([C@@H](CC(=O)N1CCC[C@H]1[C@H](OC)[C@@H](C)C(=O)N[C@H](C)[C@@H](O)c1ccccc1)OC)N(C)C(=O)[C@@H](NC(=O)[C@@H](NC)C(C)C)C(C)C` [MMAE, monomethyl auristatin E] (H-[NMeV]V[Dil][Dolaproine]-X1), the metabolism in vitro result on CYP3A4 was “primarily metabolized by CYP3A4”. The “exposure (AUC) in mild, moderate or severe renal impairment” value in series [1] (1.25 mg/kg, compared to normal renal function) was “No significant differences”. Also, the “AUC increase in mild hepatic impairment” value in series [1] (n=31, compared to normal hepatic function, population pharmacokinetics analysis) amounted to 48%. For the same molecule, in series [1] (patients), the “accumulation following repeat administration” value is “Minimal accumulation”, the “elimination of MMAE” value was “limited by its rate of release from enfortumab vedotin-ejfv”, the “mean clearance (CL)” value was 2.7 L/h and the “steady-state concentrations reached after” value was determined as 1 treatment cycle. For the same molecule, the “time of peak MMAE concentrations after enfortumab vedotin-ejfv dosing” value in series [1] (patients) was “approximately 2 days”. Besides, the elimination half-life in [1] (patients, multi-exponential declines) is 57.6 h. Besides, in [1] (setting [6]), the “AUC0-28 d, Mean (±SD)” value is given as 69 (42) ng · d/mL; the “Cmax, Mean (±SD)” value is 4.8 (2.7) ng/mL; the “Ctrough, 0-28 d (pre-dose concentration on day 28), Mean (±SD)” value is on record as 0.57 (0.58) ng/mL. Besides, the “mutagenicity in L5178Y mouse lymphoma forward mutation assay” value in the series with L5178Y mouse lymphoma was “not mutagenic”. The “mutagenicity in Ames test” value in series [2] is recorded as “not mutagenic”. Besides, the “genotoxicity in rat bone marrow micronucleus study” value in the series with rat bone marrow is given as “genotoxic”. Also, on P-glycoprotein (P-gp), the P-gp inhibition result is reported as “not an inhibitor” and the P-gp substrate entry is given as “substrate”.
Consider “CT-011: anti-PD-1 antibody, a humanized antibody”, for which, in [3], the “response in acute myeloid leukemia (AML) at relapse” value is on record as “failed to show response”.
For the molecule “Ha22-2(2,4)6.1-vcMMAE: 191P4D12 ADC: antibody Ha22-2(2,4)6.1 (murine hybridoma cell line-derived) conjugated to MMAE via vc linker”, the “growth of AG-L4 lung cancer xenografts” value in [4] is “significantly inhibited”. Also, the “growth of BT-483 breast tumor xenografts” value in series [5] is on record as “significantly inhibited”.
